{"source": "patent US6806359B1", "about": "“Hormone receptor compositions and methods” (The Salk Institute for Biological Studies, priority 1986, dated 2004)", "target": "T1, GR (Homo sapiens, UniProt P04150)", "T1 sequence (P04150 1-777)": "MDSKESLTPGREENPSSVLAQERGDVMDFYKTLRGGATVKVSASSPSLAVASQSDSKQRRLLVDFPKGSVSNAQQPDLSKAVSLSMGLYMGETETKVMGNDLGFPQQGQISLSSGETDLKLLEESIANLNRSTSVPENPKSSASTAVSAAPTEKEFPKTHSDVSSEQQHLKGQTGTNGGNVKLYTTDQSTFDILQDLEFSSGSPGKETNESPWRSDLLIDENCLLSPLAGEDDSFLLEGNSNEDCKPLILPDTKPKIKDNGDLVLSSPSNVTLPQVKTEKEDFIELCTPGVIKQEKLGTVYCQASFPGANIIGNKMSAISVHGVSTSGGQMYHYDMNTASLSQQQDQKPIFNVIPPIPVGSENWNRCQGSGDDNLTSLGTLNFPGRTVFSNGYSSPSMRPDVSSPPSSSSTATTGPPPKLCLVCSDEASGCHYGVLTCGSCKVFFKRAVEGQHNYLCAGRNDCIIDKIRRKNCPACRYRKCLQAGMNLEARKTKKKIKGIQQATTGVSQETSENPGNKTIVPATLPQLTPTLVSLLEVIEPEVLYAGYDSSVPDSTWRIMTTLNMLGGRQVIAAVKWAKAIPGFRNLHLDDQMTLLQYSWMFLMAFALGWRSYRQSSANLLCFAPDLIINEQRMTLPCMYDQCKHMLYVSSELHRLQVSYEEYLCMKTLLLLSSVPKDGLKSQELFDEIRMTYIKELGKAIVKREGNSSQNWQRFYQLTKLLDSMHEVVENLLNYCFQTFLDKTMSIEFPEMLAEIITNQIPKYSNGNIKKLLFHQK", "test": "hGR functional assay: CAT activity in CV-1 cells cotransfected with pRShGR alpha (or mutant) and pMTVCAT", "format": "cell-based", "set-up": "The expression vector linking the RSV LTR to full length hGR cDNA (pRShGR alpha) was designed to obtain high levels of expression; expressed in transfected cells; host or cells: CV-1 monkey kidney cells, cotransfected with pMTVCAT", "details": "100 nM steroid, cotransfected CV-1 cells", "excerpt": "The assay system and strategy used to study the expression of functional hGR from the cloned cDNA (See Experimental Section I) is shown in FIG. 11. In these experiments, a glucocorticoid-responsive promoter/enhancer element linked to a reporter gene was introduced into a receptor-negative cell. […] For our assay, we chose to use the MTV LTR fused to the sequence coding for chloramphenicol acetyltransferase (CAT) (EC2.3.1.28). […] Cotransfection of pMTVCAT (or pGMCAT) with a receptor expression plasmid provides functional receptors that allow induction of CAT activity upon treatment of the transfected cells with glucocorticoid hormone. In addition, biochemical studies such as steroid binding activity and Western blot analysis of the expressed receptors can be performed simultaneously.\nThe cells are then cultured in the presence or absence of hormone. CV-1 cells were used to monitor induction of CAT activity, and COS cells were used to measure steroid-binding capacity and the expression of hGR protein.\nCAT assays were performed as indicated in Experimental Procedures (See Section II. F.). C, chloramphenicol; AC, 3-acetylchloramphenicol.\nThe levels of CAT activity were plotted as percentages of the maximal response observe in a particular experiment.\nEach plasmid preparation used for transfection was purified using two consecutive CsCl-EtBr equilibrium gradients. […]", "data": [{"smiles": "C[C@]12CC[C@@H]3c4ccc(O)cc4CC[C@H]3[C@@H]1CC[C@@H]2O", "note": "[oestradiol]", "values": [{"measurement": "induction of CAT activity by steroid", "value": "failed to induce CAT activity"}]}]}
